Measured values from patent publication US9969742B2, “Imidazotriazinone compounds” (Ironwood Pharmaceuticals, Inc., priority 2012, dated 2018).

Experiments:
Format in all cases: biochemical
PDE1B = target: T1, PDE1B (Homo sapiens, UniProt Q01064); assay: Phosphodiesterase enzyme screening assay, PDE1B; conditions: Table 1; ratio of IC50 values; value greater than 1 indicates greater selectivity for PDE9A2
T1 construct: purchased Reaction Biology Corporation, Malvern, Pa
Source text: (§1) Compounds of the invention were screened against PDE1A, PDE1B, PDE2A, PDE3A, PDE3B, PDE4A1A, PDE4B1, PDE4D3, PDE5A1, PDE6C, PDE7A, PDE8A1, PDE9A2, PDE10A2 AND PDE11A isoforms of the phosphodiesterase enzyme to determine activity and overall selectivity through comparative analysis. […] Where 8-methoxy-IBMX and Zaprinast were used as reference inhibitors.
(§2) The phosphodiesterase enzyme isoforms were obtained from a commercial retailer (Reaction Biology Corporation, Malvern, Pa.) for use in the instant screening assay.
(§3) The analysis was completed using the Caliper LabChip 3000 and a 12-sipper LabChip. LabChip assays are separations-based, meaning that the product and substrate are electrophoretically separated, thereby minimizing interferences and yielding the highest data quality available on any screening platform. […] High Z′ values, few false positives, few false negatives and analytical quality reproducibility are the reasons cited for the increasing reliance on the LabChip assays.
(§4) The off-chip incubation mobility-shift phosphodiesterase assay uses a microfluidic chip to measure the conversion of a fluorescent cyclic AMP substrate to a 5′-AMP product, or a cyclic GMP substrate to a 5′-GMP product. The reaction mixture, from a microtiter plate well, is introduced through a capillary sipper onto the chip, where the fluorescent substrate and product are separated by electrophoresis and detected via laser-induced fluorescence. […] The precision of microfluidics allows researchers to detect subtle interactions between drug candidates and therapeutic targets.
(§5) Reactions were carried out in 100 mM HEPES (pH 7.5), 5 mM MgCl2, 1 mM DTT, 0.003% Brij, 4.0 μM cGMP substrate. The reaction was started by addition of cGMP or cAMP and incubated for 1 hour at R.T. The reaction was terminated by the addition of stop buffer containing 100 mM HEPES (pH 7.5), 15 mM EDTA, 0.015% Brij-35, 5% DMSO. Cyclic AMP/GMP substrate and 5′-AMP/5′-GMP product were separated by charge using electrophoretic mobility shift. Product formed was compared to control wells to determine inhibition or enhancement of enzyme activity.
(§6) Data points were averages of quadruplicate wells and error bars represented the SEM for each point.

PDE9A2 = target: T2, PDE9A2 (Homo sapiens, UniProt O76083); assay: Phosphodiesterase enzyme screening assay, PDE9A2; conditions: Table 1; 10 concentrations; 4.0 μM cGMP substrate; 1 hour at R.T.; read-out: Band (PDE9A2 IC50)
T2 construct: purchased Reaction Biology Corporation, Malvern, Pa
Procedure, shortened: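 Human PDE isoforms were incubated 1 h at room temperature with 4.0 μM fluorescent cGMP substrate in 100 mM HEPES pH 7.5, 5 mM MgCl2, 1 mM DTT, 0.003% Brij. EDTA stop buffer ended reactions, and substrate and 5′-GMP product were separated by microfluidic electrophoretic mobility shift with laser-induced fluorescence. Inhibition was calculated against control wells.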

PDE1A = target: T3, PDE1A (Homo sapiens, UniProt P54750); assay: Phosphodiesterase enzyme screening assay, PDE1A; conditions: Table 1; ratio of IC50 values; value greater than 1 indicates greater selectivity for PDE9A2
T3 construct: purchased Reaction Biology Corporation, Malvern, Pa
Source text: as §1, §2, §3, §4, §5, §6

T3 sequence (P54750 whole entry): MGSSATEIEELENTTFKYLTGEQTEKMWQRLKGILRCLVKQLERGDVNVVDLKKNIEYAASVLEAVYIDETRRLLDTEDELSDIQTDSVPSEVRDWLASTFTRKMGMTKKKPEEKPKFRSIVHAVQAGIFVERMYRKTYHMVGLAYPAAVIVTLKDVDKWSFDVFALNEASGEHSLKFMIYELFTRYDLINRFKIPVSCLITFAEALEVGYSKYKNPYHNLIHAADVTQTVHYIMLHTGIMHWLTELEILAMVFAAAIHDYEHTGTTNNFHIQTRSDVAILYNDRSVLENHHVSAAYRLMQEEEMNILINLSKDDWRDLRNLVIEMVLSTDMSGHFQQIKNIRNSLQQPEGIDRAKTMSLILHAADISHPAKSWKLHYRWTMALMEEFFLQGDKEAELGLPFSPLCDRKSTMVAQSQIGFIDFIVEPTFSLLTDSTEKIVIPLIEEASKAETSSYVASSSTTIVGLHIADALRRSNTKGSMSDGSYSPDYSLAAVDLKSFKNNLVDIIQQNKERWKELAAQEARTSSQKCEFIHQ
T1 sequence (Q01064 whole entry): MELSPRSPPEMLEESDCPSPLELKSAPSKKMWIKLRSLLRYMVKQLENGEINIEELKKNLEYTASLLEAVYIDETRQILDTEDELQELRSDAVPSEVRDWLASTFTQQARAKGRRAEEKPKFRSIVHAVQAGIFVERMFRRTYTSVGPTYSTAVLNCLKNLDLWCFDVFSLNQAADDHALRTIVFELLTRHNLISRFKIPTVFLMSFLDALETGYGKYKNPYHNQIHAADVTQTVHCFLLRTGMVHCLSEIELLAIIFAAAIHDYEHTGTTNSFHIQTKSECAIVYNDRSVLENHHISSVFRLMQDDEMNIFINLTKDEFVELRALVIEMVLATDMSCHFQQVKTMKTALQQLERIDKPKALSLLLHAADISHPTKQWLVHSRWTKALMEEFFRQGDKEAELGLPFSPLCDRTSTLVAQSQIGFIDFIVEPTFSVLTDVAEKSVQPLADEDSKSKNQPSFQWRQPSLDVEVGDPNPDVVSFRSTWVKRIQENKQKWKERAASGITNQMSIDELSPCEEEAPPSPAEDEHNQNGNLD
T2 sequence (O76083 1-533 isoform O76083-2): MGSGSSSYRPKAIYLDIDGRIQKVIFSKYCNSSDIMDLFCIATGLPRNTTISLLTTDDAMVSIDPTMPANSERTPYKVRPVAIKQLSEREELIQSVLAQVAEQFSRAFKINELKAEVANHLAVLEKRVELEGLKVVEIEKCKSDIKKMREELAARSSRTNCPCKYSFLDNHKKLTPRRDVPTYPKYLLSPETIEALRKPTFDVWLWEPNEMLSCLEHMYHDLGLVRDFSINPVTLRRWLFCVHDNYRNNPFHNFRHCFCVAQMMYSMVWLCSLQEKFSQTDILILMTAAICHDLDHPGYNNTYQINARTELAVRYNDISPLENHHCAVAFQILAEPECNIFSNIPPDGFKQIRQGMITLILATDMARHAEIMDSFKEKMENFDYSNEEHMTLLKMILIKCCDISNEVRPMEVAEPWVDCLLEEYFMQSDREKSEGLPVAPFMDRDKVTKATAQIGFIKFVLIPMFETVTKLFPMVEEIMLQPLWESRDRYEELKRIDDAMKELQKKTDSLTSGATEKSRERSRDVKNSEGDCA

Row | SMILES | PDE1B selectivity (versus PDE9A2) (PDE1B) | IC50 (PDE9A2) | PDE1A selectivity (versus PDE9A2) (PDE1A)
1 | CC1CN(Cc2ccccc2)CC1c1nn2c(C3CCCOC3)ncc2c(=O)[nH]1 (single isomer, unassigned) [2-((3,4-trans)-1-benzyl-4-methylpyrrolidin-3-yl)-7-(tetrahydro-2H-pyran-3-yl)imidazo[5,1-f][1,2,4]triazin-4(3H)-one] | 38 | – | 28
2 | Cc1cc(F)ccc1-c1ncc2c(=O)[nH]c(C3CN(Cc4ccccc4)CC3C)nn12 (single isomer, unassigned; (+)) [(+)-2-((3,4-trans)-1-benzyl-4-methylpyrrolidin-3-yl)-7-(4-fluoro-2-methylphenyl)imidazo[5,1-f][1,2,4]triazin-4(3H)-one] | 225 | – | 257
3 | Cc1ccc(Cl)cc1-c1ncc2c(=O)[nH]c(C3CN(Cc4ccccc4)CC3C)nn12 (single isomer, unassigned; (+)) [(+)-2-((3,4-trans)-1-benzyl-4-methylpyrrolidin-3-yl)-7-(5-chloro-2-methylphenyl)imidazo[5,1-f][1,2,4]triazin-4(3H)-one] | 142 | – | 276
4 | Cc1ccc(F)cc1-c1ncc2c(=O)[nH]c(C3CN(Cc4ccccc4)CC3C)nn12 (single isomer, unassigned; (+)) [(+)-2-((3,4-trans)-1-benzyl-4-methylpyrrolidin-3-yl)-7-(5-fl] [(+)-2-((3,4-trans)-1-benzyl-4-methylpyrrolidin-3-yl)-7-(5-fluoro-2-methylphenyl)imidazo[1,5-f][1,2,4]triazin-4(3H)-one] | 109 | – | 247
5 | CC1CN(Cc2ncccn2)CC1c1nn2c(C3CCOC3)ncc2c(=O)[nH]1 (single isomer, unassigned; (+)) [(+)-2-((3,4-trans)-4-methyl-1-(pyrimidin-2-ylmethyl)pyrrolid] [(+)-2-((3,4-trans)-4-methyl-1-(pyrimidin-2-ylmethyl)pyrrolidin-3-yl)-7-(tetrahydrofuran-3-yl)imidazo[5,1-f][1,2,4]triazin-4(3H)-one] | 58 | – | 28
6 | CC(=O)N1CCC(c2ncc3c(=O)[nH]c(C4CN(Cc5ccccc5)CC4C)nn23)CC1 (single isomer, unassigned; (+)) [(+)-7-(1-acetylpiperidin-4-yl)-2-((3,4-trans)-1-benzyl-4-methylpyrrolidin-3-yl)imidazo[5,1-f][1,2,4]triazin-4(3H)-one] | 232 | – | 177
7 | CC1CN(Cc2ncccn2)CC1c1nn2c(C3CCC(F)(F)CC3)ncc2c(=O)[nH]1 (single isomer, unassigned; (+)) [(+)-7-(4,4-difluorocyclohexyl)-2-((3,4-trans)-4-methyl-1-(pyrimidin-2-ylmethyl)pyrrolidin-3-yl)imidazo[5,1-f][1,2,4]triazin-4(3H)-one] | 313 | – | 165
8 | Cc1ccc(F)cc1-c1ncc2c(=O)[nH]c(C3CN(Cc4ncccn4)CC3C)nn12 (single isomer, unassigned; (+)) [(+)-7-(5-fluoro-2-methylphenyl)-2-((3,4-trans)-4-methyl-1-(p] [(+)-7-(5-fluoro-2-methylphenyl)-2-((3,4-trans)-4-methyl-1-(pyrimidin-2-ylmethyl)pyrrolidin-3-yl)imidazo[1,5-f][1,2,4]triazin-4(3H)-one] | 102 | – | 158
9 | Cc1cc(F)ccc1-c1ncc2c(=O)[nH]c(C3CN(Cc4ncccn4)CC3C)nn12 (single isomer, unassigned; (-)) [(−)-7-(4-fluoro-2-methylphenyl)-2-((3,4-trans)-4-methyl-1-(pyrimidin-2-ylmethyl)pyrrolidin-3-yl)imidazo[5,1-f][1,2,4]triazin-4(3H)-one] | 175 | – | 132

Now from value to compound:

Row | PDE1B selectivity (versus PDE9A2) (PDE1B) | IC50 (PDE9A2) | PDE1A selectivity (versus PDE9A2) (PDE1A) | SMILES
10 | 1413 | < 1000 nM | 1005 | C[C@@H]1CN(Cc2cn3ncccc3n2)C[C@H]1c1nn2c(C3CCOCC3)ncc2c(=O)[nH]1 (relative stereo) [(+)-2-((3,4-trans)-1-(imidazo[1,2-b]pyridazin-2-ylmethyl)-4-methylpyrrolidin-3-yl)-7-(tetrahydro-2H-pyran-4-yl)imidazo[5,1-f][1,2,4]triazin-4(3H)-one]
11 | 5 | – | 5 | CC1CN(Cc2ccccc2)CC1c1nn2c(C3CCOCC3)ncc2c(=O)[nH]1 (single isomer, unassigned; (+)) [(+)-2-((3,4-trans)-1-benzyl-4-methylpyrrolidin-3-yl)-7-(tetr] [(+)-2-((3,4-trans)-1-benzyl-4-methylpyrrolidin-3-yl)-7-(tetrahydro-2H-pyran-4-yl)imidazo[1,5-f][1,2,4]triazin-4(3H)-one]
12 | 99 | – | 51 | CC1CN(C(C)c2ccccc2)CC1c1nn2c(C3CCOCC3)ncc2c(=O)[nH]1 (single isomer, unassigned; (+)) [(+)-2-((3,4-trans)-4-methyl-1-((S)-1-phenylethyl)pyrrolidin-]
13 | 178 | – | 202 | CC1CN(Cc2cnccn2)CC1c1nn2c(C3CCOCC3)ncc2c(=O)[nH]1 (single isomer, unassigned; (+)) [(+)-2-((3,4-trans)-4-methyl-1-(pyrazin-2-ylmethyl)pyrrolidin-3-yl)-7-(tetrahydro-2H-pyran-4-yl)imidazo[5,1-f][1,2,4]triazin-4(3H)-one]
14 | 386 | – | 393 | CC1CN(Cc2ncccn2)CC1c1nn2c(C3CCOCC3)ncc2c(=O)[nH]1 (single isomer, unassigned; (+)) [(+)-2-((3,4-trans)-4-methyl-1-(pyrimidin-2-ylmethyl)pyrrolid] [(+)-2-((3,4-trans)-4-methyl-1-(pyrimidin-2-ylmethyl)pyrrolidin-3-yl)-7-(tetrahydro-2H-pyran-4-yl)imidazo[5,1-f][1,2,4]triazin-4(3H)-one]
15 | 1360 | – | 973 | CC1CN(Cc2ncc3ccccc3n2)CC1c1nn2c(C3CCOCC3)ncc2c(=O)[nH]1 (single isomer, unassigned; (+)) [(+)-2-((3,4-trans)-4-methyl-1-(quinazolin-2-ylmethyl)pyrroli] [(+)-2-((3,4-trans)-4-methyl-1-(quinazolin-2-ylmethyl)pyrrolidin-3-yl)-7-(tetrahydro-2H-pyran-4-yl)imidazo[5,1-f][1,2,4]triazin-4(3H)-one]
16 | 1140 | – | 1110 | CC1CN(Cc2cccc(F)c2)CC1c1nn2c(C3CCOCC3)ncc2c(=O)[nH]1 (single isomer, unassigned; (-)) [(−)-2-((3,4-trans)-1-(3-fluorobenzyl)-4-methylpyrrolidin-3-yl)-7-(tetrahydro-2H-pyran-4-yl)imidazo[5,1-f][1,2,4]triazin-4(3H)-one]
17 | 23 | – | 12 | CC1CN(C(=O)c2ccc(F)cc2)CC1c1nn2c(C3CCOCC3)ncc2c(=O)[nH]1 (single isomer, unassigned; (-)) [(−)-2-((3,4-trans)-1-(4-fluorobenzoyl)-4-methylpyrrolidin-3-] [(−)-2-((3,4-trans)-1-(4-fluorobenzoyl)-4-methylpyrrolidin-3-yl)-7-(tetrahydro-2H-pyran-4-yl)imidazo[5,1-f][1,2,4]triazin-4(3H)-one]
18 | 32 | – | 26 | CC1CN(C(=O)c2ccccc2)CC1c1nn2c(C3CCOCC3)ncc2c(=O)[nH]1 (single isomer, unassigned; (-)) [(−)-2-((3,4-trans)-1-benzoyl-4-methylpyrrolidin-3-yl)-7-(tet] [(−)-2-((3,4-trans)-1-benzoyl-4-methylpyrrolidin-3-yl)-7-(tetrahydro-2H-pyran-4-yl)imidazo[5,1-f][1,2,4]triazin-4(3H)-one]
